Source: ChEMBL document CHEMBL1641562, “Modifications of the C6-substituent of penicillin sulfones with the goal of improving inhibitor recognition and efficacy” (Bioorg Med Chem Lett, 2011)

Legend:
[1] = Inhibition of beta-lactamase TEM-1
[2] = Inhibition of beta-lactamase PDC-3

SMILES	IC50 [1] [µM]	IC50 [2] [µM]
CC1(C)[C@H](C(=O)O)N2C(=O)[C@@H](CC(=O)NO)[C@H]2S1(=O)=O	> 50	> 50
CC1(C)[C@H](C(=O)O)N2C(=O)[C@@H](CC(O)O)[C@H]2S1(=O)=O	> 50	> 50
CC1(C)[C@H](C(=O)O)N2C(=O)[C@@H](CCCO)[C@H]2S1(=O)=O	> 50	–
CC1(C)[C@H](C(=O)O)N2C(=O)[C@@H](CNC(=O)Cc3ccccc3)[C@H]2S1(=O)=O	> 50	–
CC1(C)[C@H](C(=O)O)N2C(=O)[C@@H](CNS(=O)(=O)C(F)(F)F)[C@H]2S1(=O)=O	6.1	–
CC1(C)[C@H](C(=O)O)N2C(=O)[C@@H]([C@@H](O)C(=O)N3CCCC3)[C@H]2S1(=O)=O	0.18	–
CC1(C)[C@H](C(=O)O)N2C(=O)[C@@H](CC(=O)O)[C@H]2S1(=O)=O	> 50	–
Cc1onc(-c2ccccc2)c1C(=O)N[C@@H]1C(=O)N2[C@@H](C(=O)O)C(C)(C)S(=O)(=O)[C@H]12	> 50	–
CC1(C)[C@H](C(=O)O)N2C(=O)[C@@H](NS(=O)(=O)C(F)(F)F)[C@H]2S1(=O)=O	> 50	–
CC1(C)[C@H](C(=O)O)N2C(=O)[C@@H](CN)[C@H]2S1(=O)=O	0.45	> 50
COc1cccc(OC)c1C(=O)N[C@@H]1C(=O)N2[C@@H](C(=O)O)C(C)(C)S(=O)(=O)[C@H]12	> 50	–
CC1(C)[C@H](C(=O)O)N2C(=O)[C@@H]([C@@H](O)CN)[C@H]2S1(=O)=O	1.2	1.2
C=CCOC(=O)NC[C@@H]1C(=O)N2[C@@H](C(=O)O)C(C)(C)S(=O)(=O)[C@H]12	> 50	–
CC1(C)[C@H](C(=O)O)N2C(=O)[C@@H](NC(=O)Cc3ccccc3)[C@H]2S1(=O)=O	> 50	> 50
CC1(C)[C@H](C(=O)O)N2C(=O)[C@@H](NCC(=O)O)[C@H]2S1(=O)=O	> 50	–
C=CC[C@@H]1C(=O)N2[C@@H](C(=O)OC(c3ccccc3)c3ccccc3)C(C)(C)S(=O)(=O)[C@H]12	35	1.2
CC1(C)[C@H](C(=O)O)N2C(=O)[C@@H](CCO)[C@H]2S1(=O)=O	> 50	–
CC(C)(C)C(=O)NC[C@@H]1C(=O)N2[C@@H](C(=O)O)C(C)(C)S(=O)(=O)[C@H]12	> 50	–
CC1(C)[C@H](C(=O)O)N2C(=O)[C@@H](N)[C@H]2S1(=O)=O	8.4	> 50
CC1(C)[C@H](C(=O)O)N2C(=O)C[C@H]2S1(=O)=O [SULBACTAM]	–	4.3
